Data as given in patent US7459466B2, “Substituted 2-(2,6-dioxopiperidin-3-yl)-phthalimides and -1-oxoisoindolines and method of reducing TNFα levels” (Celgene Corporation, priority 1997, dated 2008).

melting point: 268 to 269 °C
SMILES: CC1(N2C(=O)c3cccc(N)c3C2=O)CCC(=O)NC1=O (stereo not shown) [Example 7, 3-(3-Aminophthalimido)-3-methyl-piperidine-2,6-dione]
